Measurements as given in the NIST ThermoML archive (doi:10.1016/j.jct.2009.04.015).
Where “and” joins values, the source holds several entries; their conditions need not be identical. Equal values may be shown once.

Conditions: Crystal, Calculated from knudsen effusion weight loss

Cc1cc(O)ccc1O [1,4-benzenediol, 2-methyl-]
Conditions | vapor or sublimation pressure
325.21 K | 0.000147 kPa and 0.000144 kPa and 0.000138 kPa
327.15 K | 0.000189 kPa and 0.000182 kPa and 0.000173 kPa
329.11 K | 0.000239 kPa and 0.000229 kPa and 0.000226 kPa
331.19 K | 0.000292 kPa and 0.000277 kPa and 0.000298 kPa
333.14 K | 0.000375 kPa and 0.000361 kPa and 0.000348 kPa
335.11 K | 0.000481 kPa and 0.000462 kPa and 0.000448 kPa
337.2 K | 0.00061 kPa and 0.000607 kPa and 0.000569 kPa
339.14 K | 0.000751 kPa and 0.000731 kPa and 0.000704 kPa
341.12 K | 0.000957 kPa and 0.000916 kPa and 0.00089 kPa

Cc1cc(O)cc(O)c1 [5-methyl-1,3-benzenediol]
Conditions | vapor or sublimation pressure
322.2 K | 0.000157 kPa and 0.000153 kPa
324.16 K | 0.000199 kPa and 0.000196 kPa and 0.000193 kPa
326.1 K | 0.000246 kPa and 0.000245 kPa
328.2 K | 0.000304 kPa and 0.000311 kPa and 0.000303 kPa
330.14 K | 0.000394 kPa and 0.000383 kPa and 0.000378 kPa
332.1 K | 0.000499 kPa and 0.000485 kPa and 0.000482 kPa
334.19 K | 0.000607 kPa and 0.000596 kPa and 0.000591 kPa
336.13 K | 0.000766 kPa and 0.000754 kPa and 0.000734 kPa
338.1 K | 0.000974 kPa and 0.000935 kPa and 0.000932 kPa

Cc1ccc(O)cc1O [1,3-benzenediol, 4-methyl-]
Conditions | vapor or sublimation pressure
317.2 K | 0.000134 kPa and 0.000129 kPa and 0.000128 kPa
319.22 K | 0.000175 kPa and 0.00017 kPa and 0.000166 kPa
321.11 K | 0.00022 kPa and 0.000215 kPa and 0.000211 kPa
323.21 K | 0.000266 kPa and 0.000262 kPa and 0.000282 kPa
325.23 K | 0.000361 kPa and 0.000344 kPa and 0.000336 kPa
327.13 K | 0.000451 kPa and 0.000438 kPa and 0.000432 kPa
329.21 K | 0.000572 kPa and 0.000562 kPa and 0.000561 kPa
331.21 K | 0.000742 kPa and 0.000724 kPa and 0.000719 kPa
333.12 K | 0.000933 kPa and 0.000916 kPa and 0.000886 kPa

Cc1c(O)cccc1O [1,3-dihydroxy-2-methylbenzene]
Conditions | vapor or sublimation pressure
309.22 K | 0.000109 kPa and 0.000107 kPa and 0.000103 kPa
311.2 K | 0.000141 kPa and 0.000136 kPa and 0.000132 kPa
313.12 K | 0.000176 kPa and 0.000172 kPa and 0.000171 kPa
315.21 K | 0.000224 kPa and 0.000217 kPa and 0.000227 kPa
317.12 K | 0.000287 kPa and 0.00028 kPa and 0.000276 kPa
319.2 K | 0.000358 kPa and 0.00035 kPa and 0.000341 kPa
321.19 K | 0.000456 kPa and 0.000446 kPa and 0.000437 kPa
323.12 K | 0.000578 kPa and 0.000559 kPa and 0.000553 kPa
325.21 K | 0.000724 kPa and 0.000694 kPa and 0.000673 kPa
327.17 K | 0.000896 kPa and 0.000883 kPa and 0.000851 kPa
329.11 K | 0.001115 kPa and 0.001099 kPa and 0.001081 kPa
